Measured values: patent publication US12594276B2, “Inhibitors of human immunodeficiency virus replication” (ViiV Healthcare UK (No.5) Limited, priority 2024, dated 2026)

Tests used:
[1] = test system: recombinant NL4-3 virus (nef section replaced with Renilla luciferase gene) in MT-2 cells; test: HIV cell culture assay (antiviral activity, luciferase readout); format: cell-based; conditions: Renilla, NL43, MT-2 cells infected for 4-5 days with recombinant NL4-3 Renilla luciferase virus
Method in brief: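 Antiviral EC50 derived from luciferase signal using the exponential median effect equation. Infection of MT-2 cells ran 4-5 days alongside serial dilutions of compound, with virus generated by proviral clone transfection of 293T cells.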

[2] = Compound cytotoxicity, XTT-based colorimetric assay; format: cell-based; conditions: human; uninfected MT2 cells, day 4, XTT; read-out: CC50
Method in brief: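 Follows the antiviral assay procedure, but with uninfected MT2 cells. On day 4, cell viability is measured by XTT-based colorimetry, giving CC50 values.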

In the case of `CS(=O)(=O)Nc1nn(CCN2CC[C@](F)(C(F)(F)F)C2)c2c(-n3c([C@H](Cc4cc(F)cc(F)c4)NC(=O)Cn4nc(C(F)F)c5c4C(F)(F)[C@@H]4C[C@H]54)nc4nc(C5CCC(F)(F)CC5)ccc4c3=O)ccc(Cl)c12` (atropisomer, axis not shown; (P)) [Example 41], the EC50 [1] is reported as 0.015 nM and the CC50 at 4 days [2] is reported as > 50 nM.

With `CCc1cc(C2CCC(F)(F)CC2)nc2nc([C@H](Cc3cc(F)cc(F)c3)NC(=O)Cn3nc(C4CC4)c4c3C(F)(F)[C@@H]3C[C@H]43)n(-c3ccc(Cl)c4c(NS(C)(=O)=O)nn(CCCOC)c34)c(=O)c12` (atropisomer, axis not shown; (P)) [Example 639, N-[(1S)-1-[(3P)-3-[4-chloro-3-methanesulfonamido-1-(3-methoxypropyl)-1H-indazol-7-yl]-7-(4,4-difluorocyclohexyl)-5-ethyl-4-oxo-3H,4H-pyrido[2,3-d]pyrimidin-2-yl]-2-(3,5-difluorophenyl)ethyl]-2-[(2S,4R)-9-cyclopropyl-5,5-difluoro-7,8-diazatricyclo[4.3.0.0^2,^4]nona-1(6),8-dien-7-yl]acetamide] the EC50 [1] was 0.025 nM and the CC50 at 4 days [2] was > 50 nM.

With `COCCCn1nc(NS(C)(=O)=O)c2c(Cl)ccc(-n3c([C@H](Cc4cc(F)cc(F)c4)NC(=O)Cn4nc(C(F)F)c5c4C(F)(F)[C@@H]4C[C@H]54)nc4nc(C5CCC(F)(F)CC5)cc(NCC5CCOCC5)c4c3=O)c21` (atropisomer, axis not shown; (P)) [Example 431, N-[(1S)-1-[(3P)-3-[4-chloro-3-methanesulfonamido-1-(3-methoxypropyl)-1H-indazol-7-yl]-7-(4,4-difluorocyclohexyl)-5-{[(oxan-4-yl)methyl]amino}-4-oxo-3H,4H-pyrido[2,3-d]pyrimidin-2-yl]-2-(3,5-difluorophenyl)ethyl]-2-[(2S,4R)-9-(difluoromethyl)-5,5-difluoro-7,8-diazatricyclo[4.3.0.0^2,^4]nona-1(6),8-dien-7-yl]acetamide] the EC50 [1] was 0.01 nM and the CC50 at 4 days [2] was > 20 nM.

With `CC1(C)CN(CCn2nc(NS(C)(=O)=O)c3c(Cl)ccc(-n4c([C@H](Cc5cc(F)cc(F)c5)NC(=O)Cn5nc(C(F)F)c6c5C(F)(F)[C@@H]5C[C@H]65)nc5nc(C6CCC(F)(F)CC6)cc(CF)c5c4=O)c32)CC(C)(C)O1` (atropisomer, axis not shown; (P)) [Example 513, N-[(1S)-1-[(3P)-3-{4-chloro-3-methanesulfonamido-1-[2-(2,2,6,6-tetramethylmorpholin-4-yl)ethyl]-1H-indazol-7-yl}-7-(4,4-difluorocyclohexyl)-5-(fluoromethyl)-4-oxo-3H,4H-pyrido[2,3-d]pyrimidin-2-yl]-2-(3,5-difluorophenyl)ethyl]-2-[(2S,4R)-9-(difluoromethyl)-5,5-difluoro-7,8-diazatricyclo[4.3.0.0^2,^4]nona-1(6),8-dien-7-yl]acetamide] the EC50 [1] was 0.017 nM and the CC50 at 4 days [2] was > 20 nM.

In the case of `Cc1cc(C2CCC(F)(F)CC2)nc2nc([C@H](Cc3cc(F)cc(F)c3)NC(=O)Cn3nc(C4CC4)c4c3C[C@@H]3C[C@H]43)n(-c3ccc(Cl)c4c(NS(C)(=O)=O)nn(CCN5C[C@@H](C)O[C@@H](C)C5)c34)c(=O)c12` (atropisomer, axis not shown; (P)) [Example 230, N-[(1S)-1-[(3P)-3-(4-chloro-1-{2-[(2R,6S)-2,6-dimethylmorpholin-4-yl]ethyl}-3-methanesulfonamido-1H-indazol-7-yl)-7-(4,4-difluorocyclohexyl)-5-methyl-4-oxo-3H,4H-pyrido[2,3-d]pyrimidin-2-yl]-2-(3,5-difluorophenyl)ethyl]-2-[(2S,4S)-9-cyclopropyl-7,8-diazatricyclo[4.3.0.0^2,^4]nona-1(6),8-dien-7-yl]acetamide], the EC50 [1] is reported as 0.006 nM and the CC50 at 4 days [2] is reported as > 50 nM.

With `Cc1cc(C2(C)CCC(F)(F)CC2)nc2nc([C@H](Cc3cc(F)cc(F)c3)NC(=O)Cn3nc(C4CC4)c4c3C[C@@H]3C[C@H]43)n(-c3ccc(Cl)c4c(NS(C)(=O)=O)nn(CCN5C[C@@H](C)O[C@@H](C)C5)c34)c(=O)c12` (atropisomer, axis not shown; (P)) [Example 508, N-[(1S)-1-[(3P)-3-(4-chloro-1-{2-[(2R,6S)-2,6-dimethylmorpholin-4-yl]ethyl}-3-methanesulfonamido-1H-indazol-7-yl)-7-(4,4-difluoro-1-methylcyclohexyl)-5-methyl-4-oxo-3H,4H-pyrido[2,3-d]pyrimidin-2-yl]-2-(3,5-difluorophenyl)ethyl]-2-[(2S,4S)-9-cyclopropyl-7,8-diazatricyclo[4.3.0.0^2,^4]nona-1(6),8-dien-7-yl]acetamide] the EC50 [1] was 0.012 nM and the CC50 at 4 days [2] was > 20 nM.

For `Cc1cc(C2CCC(F)(F)CC2)nc2nc([C@H](Cc3cc(F)cc(F)c3)NC(=O)Cn3nc(C4CC4)c4c3C[C@@H]3C[C@H]43)n(-c3ccc(Cl)c4c(NS(C)(=O)=O)nn(C[C@H](C)N5CC(C)(C)OC(C)(C)C5)c34)c(=O)c12` (relative stereo) [Example 714, N-[(1S)-1-[(3P)-3-{4-chloro-3-methanesulfonamido-1-[(2S)-2-(2,2,6,6-tetramethylmorpholin-4-yl)propyl]-1H-indazol-7-yl}-7-(4,4-difluorocyclohexyl)-5-methyl-4-oxo-3H,4H-pyrido[2,3-d]pyrimidin-2-yl]-2-(3,5-difluorophenyl)ethyl]-2-[(2R*,4R*)-9-cyclopropyl-7,8-diazatricyclo[4.3.0.0^2,4]nona-1(6),8-dien-7-yl]acetamide], the EC50 [1] was 0.024 nM and the CC50 at 4 days [2] was > 20 nM.

With `Cc1cc(C2(C)CCC(F)(F)CC2)nc2nc([C@H](Cc3cc(F)cc(F)c3)NC(=O)Cn3nc(C(F)F)c4c3C(F)(F)[C@@H]3C[C@H]43)n(-c3ccc(Cl)c4c(NS(C)(=O)=O)nn(CCN5CC(C)(C)OC(C)(C)C5)c34)c(=O)c12` (atropisomer, axis not shown; (P)) [Example 507, N-[(1S)-1-[(3P)-3-{4-chloro-3-methanesulfonamido-1-[2-(2,2,6,6-tetramethylmorpholin-4-yl)ethyl]-1H-indazol-7-yl}-7-(4,4-difluoro-1-methylcyclohexyl)-5-methyl-4-oxo-3H,4H-pyrido[2,3-d]pyrimidin-2-yl]-2-(3,5-difluorophenyl)ethyl]-2-[(2S,4R)-9-(difluoromethyl)-5,5-difluoro-7,8-diazatricyclo[4.3.0.0^2,^4]nona-1(6),8-dien-7-yl]acetamide] the EC50 [1] was 0.021 nM and the CC50 at 4 days [2] was > 20 nM.

With `Cc1cc(C2CCC(F)(F)CC2)nc2nc([C@H](Cc3cc(F)cc(F)c3)NC(=O)Cn3nc(C4CC4)c4c3C[C@@H]3C[C@H]43)n(-c3ccc(Cl)c4c(NS(C)(=O)=O)nn(CCN5CCCC(F)(F)C5)c34)c(=O)c12` (atropisomer, axis not shown; (P)) [Example 2, N-[(1S)-1-[(3P)-3-{4-chloro-1-[2-(3,3-difluoropiperidin-1-yl)ethyl]-3-methanesulfonamido-1H-indazol-7-yl}-7-(4,4-difluorocyclohexyl)-5-methyl-4-oxo-3H,4H-pyrido[2,3-d]pyrimidin-2-yl]-2-(3,5-difluorophenyl)ethyl]-2-[(2S,4S)-9-cyclopropyl-7,8-diazatricyclo[4.3.0.0^2,^4]nona-1(6),8-dien-7-yl]acetamide] the EC50 [1] was 0.008 nM and the CC50 at 4 days [2] was > 50 nM.

For `COCCCn1nc(NS(C)(=O)=O)c2c(Cl)ccc(-n3c([C@H](Cc4cc(F)cc(F)c4)NC(=O)Cn4nc(C(F)F)c5c4C(F)(F)[C@@H]4C[C@H]54)nc4nc(C5CCC(F)(F)CC5)cc(NCCN5CCC(C)(C)CC5)c4c3=O)c21` (atropisomer, axis not shown; (P)) [Example 523, N-[(1S)-1-[(3P)-3-[4-chloro-3-methanesulfonamido-1-(3-methoxypropyl)-1H-indazol-7-yl]-7-(4,4-difluorocyclohexyl)-5-{[2-(4,4-dimethylpiperidin-1-yl)ethyl]amino}-4-oxo-3H,4H-pyrido[2,3-d]pyrimidin-2-yl]-2-(3,5-difluorophenyl)ethyl]-2-[(2S,4R)-9-(difluoromethyl)-5,5-difluoro-7,8-diazatricyclo[4.3.0.0^2,^4]nona-1(6),8-dien-7-yl]acetamide], the EC50 [1] was 0.012 nM and the CC50 at 4 days [2] was > 20 nM.

In the case of `Cc1cc(C2(F)CCC(F)(F)CC2)nc2nc([C@H](Cc3cc(F)cc(F)c3)NC(=O)Cn3nc(C(F)F)c4c3C(F)(F)[C@@H]3C[C@H]43)n(-c3ccc(Cl)c4c(NS(C)(=O)=O)nn(CCN5CCOC(C)(C)C5)c34)c(=O)c12` (atropisomer, axis not shown; (P)) [Example 578, N-[(1S)-1-[(3P)-3-{4-chloro-1-[2-(2,2-dimethylmorpholin-4-yl)ethyl]-3-methanesulfonamido-1H-indazol-7-yl}-5-methyl-4-oxo-7-(1,4,4-trifluorocyclohexyl)-3H,4H-pyrido[2,3-d]pyrimidin-2-yl]-2-(3,5-difluorophenyl)ethyl]-2-[(2S,4R)-9-(difluoromethyl)-5,5-difluoro-7,8-diazatricyclo[4.3.0.0^2,^4]nona-1(6),8-dien-7-yl]acetamide], the EC50 [1] is reported as 0.008 nM and the CC50 at 4 days [2] is reported as > 20 nM.

For `CCNc1cc(C2CCC(F)(F)CC2)nc2nc([C@H](Cc3cc(F)cc(F)c3)NC(=O)Cn3nc(C4CC4)c4c3C[C@@H]3C[C@H]43)n(-c3ccc(Cl)c4c(NS(C)(=O)=O)nn(CCCOC)c34)c(=O)c12` (atropisomer, axis not shown; (P)) [Example 601, N-[(1S)-1-[(3P)-3-[4-chloro-3-methanesulfonamido-1-(3-methoxypropyl)-1H-indazol-7-yl]-7-(4,4-difluorocyclohexyl)-5-(ethylamino)-4-oxo-3H,4H-pyrido[2,3-d]pyrimidin-2-yl]-2-(3,5-difluorophenyl)ethyl]-2-[(2S,4S)-9-cyclopropyl-7,8-diazatricyclo[4.3.0.0^2,^4]nona-1(6),8-dien-7-yl]acetamide], the EC50 [1] was 0.008 nM and the CC50 at 4 days [2] was > 20 nM.
